Source: US10954268B2, “Method of treating melanocortin-4 receptor-associated disorders in heterozygous carriers” (RHYTHM PHARMACEUTICALS, INC., priority 2011, dated 2021)
Bridges are numbered along the chain shown (N, C = ends). [ ]: non-standard residue; d: D form.

Test system: Diet induced obesity (DIO) littermate C57B1/6J mice
Assay: Treatment of obese MC4R+/− heterozygotic mice by Alzet pump infusion, body weight measured
Format: in vivo
Conditions: Alzet pump infusion 1200 nmol/kg/day for 8 days, FIG. 3
Experimental: Body weight was measured.
The weight change due to the exposure to the compound of SEQ ID NO: 140 in mice that are either wild type for the MC4R gene, or express only a single MC4R allele, or mice without any MC4R protein expression were compared.

Ac-Arg-c(Cys-D-Ala-His-D-Phe-Arg-Trp-Cys)-NH2 (Ac-RC[dA]H[dF]RWC-NH2; disulfide 2-8 (inferred)) [SEQ ID NO: 140]
weight loss over the treatment period (DIO homozygous MC4R knockout mice (−/−), no MC4R expression): did not show significant weight loss | body weight lost over the treatment period (DIO mice heterozygous for the MC4R gene (+/−)): about 1 gram
